Laboratory results taken from the supplement of paper PMC10307832.

What was measured:
Experiment in all cases: relative viability (nuclei count vs DMSO), 5 days (fraction); higher = more cells survive
[1] = compound: C1COCCN1CC2=CC(=O)C(=CO2)OCCCCCSC3=C4C=CC(=CC4=NC=C3)C(F)(F)F [EHT 1864] + CC(=O)c1c(C)c2cnc(Nc3ccc(N4CCNCC4)cn3)nc2n(C2CCCC2)c1=O [Palbociclib] (partner 0.5 µM)
Summary of the method: (§1)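 Values are medians from duplicate plates. Each reflects relative viability, defined as the nuclei count of treated wells over that of vehicle wells. Lung cancer cell lines in 1536-well plates were pin-tool dosed one day after seeding with one drug alone or with a fixed anchor-drug dose plus five library-drug doses (not always all listed) in √10 steps, then fixed, stained and imaged at 4× after 5 days.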

[2] = compound: C1COCCN1CC2=CC(=O)C(=CO2)OCCCCCSC3=C4C=CC(=CC4=NC=C3)C(F)(F)F [EHT 1864] + CC(C)C[C@H](NC(=O)[C@H](Cc1ccccc1)NC(=O)c1cnccn1)B(O)O [Bortezomib] (partner 0.002 µM)
Summary of the method: as §1

[3] = compound: C1COCCN1CC2=CC(=O)C(=CO2)OCCCCCSC3=C4C=CC(=CC4=NC=C3)C(F)(F)F [EHT 1864] + COc1cc2c(Oc3ccc(NC(=O)C4(C(=O)Nc5ccc(F)cc5)CC4)cc3F)ccnc2cc1OCCCN1CCOCC1 [Foretinib] (partner 0.25 µM)
Summary of the method: as §1

[4] = compound: C1COCCN1CC2=CC(=O)C(=CO2)OCCCCCSC3=C4C=CC(=CC4=NC=C3)C(F)(F)F [EHT 1864] + CS(=O)(=O)N1CCN(Cc2cc3nc(-c4cccc5[nH]ncc45)nc(N4CCOCC4)c3s2)CC1 [Pictilisib] (partner 1 µM)
Summary of the method: as §1

Cell Line	relative viability ([1]; first compound 0.04 µM)	relative viability ([1]; first compound 0.1265 µM)	relative viability ([1]; first compound 0.4 µM)	relative viability ([1]; first compound 1.265 µM)	relative viability ([1]; first compound 4 µM)	relative viability ([2]; first compound 0.04 µM)	relative viability ([2]; first compound 0.1265 µM)	relative viability ([2]; first compound 0.4 µM)	relative viability ([2]; first compound 1.265 µM)	relative viability ([2]; first compound 4 µM)	relative viability ([3]; first compound 0.04 µM)	relative viability ([3]; first compound 0.1265 µM)	relative viability ([3]; first compound 0.4 µM)	relative viability ([3]; first compound 1.265 µM)	relative viability ([3]; first compound 4 µM)	relative viability ([4]; first compound 0.04 µM)	relative viability ([4]; first compound 0.1265 µM)	relative viability ([4]; first compound 0.4 µM)	relative viability ([4]; first compound 1.265 µM)	relative viability ([4]; first compound 4 µM)
201T	0.345	0.36	0.353	0.307	0.356	1.14	1.04	1.05	1.09	1.09	0.964	1.05	1.16	0.99	1.08	0.703	0.676	0.7	0.647	0.607
A-427	0.547	0.485	0.535	0.545	0.494	1.06	1.02	0.944	0.931	0.863	1.03	0.942	0.986	1.05	0.968	0.695	0.749	0.688	0.658	0.607
ABC-1	0.629	0.631	0.692	0.687	0.577	0.32	0.306	0.316	0.371	0.303	1.22	1.06	1.03	0.954	0.834	0.935	0.713	0.814	0.824	0.73
BEN	0.468	0.493	0.472	0.435	0.47	0.8	0.719	0.64	0.549	0.624	0.702	0.585	0.827	0.484	0.771	0.523	0.532	0.589	0.576	0.61
CAL-12T	0.409	0.357	0.459	0.518	0.443	1.03	0.815	0.928	0.965	0.981	1	1.05	1	0.852	0.908	0.596	0.542	0.446	0.457	0.574
COR-L23	0.336	0.216	0.336	0.283	0.272	1.08	0.85	1.01	1.05	0.867	1.01	0.922	1	0.948	0.86	0.716	0.523	0.78	0.692	0.822
COR-L 105	0.362	0.417	0.411	0.414	0.41	0.772	0.7	0.941	0.751	0.727	0.959	1.02	1.25	1.19	0.917	0.424	0.461	0.462	0.414	0.378
Calu-6						0.97	0.844	0.846	1.11	0.917	0.932	0.853	0.846	0.913	0.87	0.899	0.866	0.862	0.902	0.83
ChaGo-K-1	0.946	0.904	0.951	0.852	0.911	0.939	1.05	0.997		0.965	0.858	0.888	0.809	0.895	0.814	0.816	0.664	0.736		0.806
EKVX	0.351	0.401	0.441	0.292	0.374	0.995	0.984	0.971	0.818	0.977	1.09	0.758	0.715	0.661	0.592	0.396	0.428	0.496	0.485	0.437
EMC-BAC-2	0.528	0.491	0.52	0.492	0.518	1.07	0.891	1.06	0.951	1.23	0.967	1.06	1.01	1.01	0.951	0.525	0.551	0.548	0.517	0.517
EPLC-272H	0.356	0.353	0.317	0.33	0.352	0.774	0.63	0.839	0.823	0.977	0.684	0.575	0.694	0.887	0.875	0.307	0.275	0.446	0.166	0.278
H3255	0.298	0.322	0.306	0.31	0.312	0.697	0.6	1.11	0.784	1.03	0.79	0.818	0.903	0.844	0.978	0.405	0.421	0.512	0.479	0.518
HARA	0.269	0.226	0.215	0.26	0.291	1.12	1.11	1.2	1.12	0.999	0.889	0.838	0.991	0.932	0.98	0.393	0.359	0.531	0.321	0.446
HCC-15	0.76		0.78	0.682	0.72	0.955	0.808	1.04	0.867	1.05	0.976		0.994	0.882	1.01	0.737	0.577	0.793	0.656	0.731
HCC-44	0.985	0.999	0.94	0.899	0.918	0.968	0.757	0.812	0.851	0.876						0.412	0.37	0.604	0.573	0.694
